We go through five compounds from patent publication US6713247B1, “Human CNS cell lines and methods of use therefor” (Signal Pharmaceuticials, Inc., priority 1996, dated 2004).

In one assay the test system is clone C10. As to the kind of experiment: Effects of EGF and PDGF on proliferation and survival, clone C10. The format is cell-based, human. Particulars: EGF 40 ng/mL, PDGF 20 ng/mL. Here is the method: (§1) EGF and PDGF Enhance Proliferation Rate and Cell Survival. To facilitate the expansion of the human CNS clones, we identified factors that increase the proliferation rate and/or cell survival. To examine the effects of EGF and PDGF on the proliferation and survival of the human CNS clones, 40 ng/mL EGF, 20 ng/mL PDGF or both were added to the standard growth medium, which already contained FGF-2 and 50% CM, and total cell number and BrdU uptake and incorporation were assessed as described above. For clone C2, EGF or PDGF addition increased the total cell number (FIG. 11A) by approximately 2-fold. This increase in cell number was due to enhanced cell viability (decreased cell death), since there were only slight increases in proliferation rate (assessed by BrdU uptake and incorporation, FIG. 11B). […] In the case of clone C10, EGF (but not PDGF) addition increased the total cell number (FIG. 12A) by approximately 40%. […] This increase in cell number was due, at least in part, to enhanced proliferation rates; BrdU uptake and incorporation increase about 2-fold with EGF or EGF+PDGF addition (FIG. 12B), and doubling times (based on cell counts as a function of days in vitro, data not shown) decreased from 3 days (no EGF or PDGF addition) to 2 days (EGF+PDGF addition). […]

A further assay concerns clone C2. The assay can be described thus: Effects of EGF and PDGF on proliferation and survival, clone C2. The format is cell-based, human. Particulars: added to growth medium with FGF-2 and 50% CM, EGF 40 ng/mL, PDGF 20 ng/mL. As for the experimental part:
as §1

The next assay concerns clone B4. As to the kind of experiment: Immunoreactivity of clone B4 (BrdU, v-myc, MAP2a/b, GFAP, tau, NR1). It counts as cell-based, human. An excerpt: (§2) To promote further neuronal maturation the effects of additional differentiating agents on clone B4 were examined.
A further assay concerns Human CNS Line B4. As to the kind of experiment: Effects of growth conditions on neuronal differentiation (morphology), Human CNS Line B4 (Table 3). The format is cell-based. The settings on record: clone B4, added to tet.
Excerpt: as §2

The test system of another assay is clone E5. The assay can be described thus: Immunoreactivity of clone E5. The format is cell-based, human. The settings on record: clone E5, after differentiation.

Excerpt for clone E5: Clone E5 is an immature multi-potent cell. Clone E5 is multi-potential and likely represents an immortalized stem cell.
Excerpt for differentiated clone B4: B4 cells were differentiated by growth with tet+RA for 1 day, followed by tet, high K^+, NT-3 and BDNF for 6 days.

Regarding “PDGF: human recombinant platelet derived growth factor A/B”, the “effect on total cell number” value with clone C10 was “not”. Besides, in the assay with clone C2, the “increase in total cell number” value is “approximately 2 fold”.
For the compound `CCCCCCCCCCCCCC(=O)O[C@@H]1[C@@H](C)[C@@]2(O)[C@@H](C=C(CO)C[C@]3(O)C(=O)C(C)=C[C@@H]23)[C@@H]2C(C)(C)[C@]12OC(C)=O` [PMA, phorbol 12-myristate 13-acetate], the “effect on cell lineage (MAP2a/b and GFAP immunoreactivities)” value in the assay on clone B4 is “strongly promoted astrocytic differentiation”. In the assay on Human CNS Line B4, the “effect on neuronal differentiation (morphology and immunocytochemical staining)” value is listed as “prevented tet from inducing neuronal differentiation”.
In the case of TNFα, in the assay on differentiated clone B4 (TNFα 10 ng/mL), the “DNA laddering upon gel analysis” value is “increased DNA laddering” and the “percentage of apoptotic nuclei” value is reported as “increased”. The “effect on neuronal viability” value in the assay with differentiated clone B4 (TNFα 0.05 or 0.2 ng/mL) is on record as “little effect on neuronal viability”.
Take `CN(C)[C@@H]1C(O)=C(C(N)=O)C(=O)[C@@]2(O)C(O)=C3C(=O)c4c(O)cccc4[C@@](C)(O)[C@H]3C[C@@H]12` [tetracycline]: in the assay on clone E5, the “cells stained for GFAP” value is on record as “about 20%” and the “cells stained for MAP2a/b” value is recorded as “about 50%”.
Take “Z-Val-Ala-Asp-Ch2F [Z-VAD, reference compound]”: the “effect on TNFα-induced increase in DNA laddering” value with differentiated clone B4 (Z-VAD at 80 μM, TNFα 10 ng/mL) is given as “blocked the increase in DNA laddering”.
